Reference: the OPERA property sets (Mansouri et al. 2018)

Details: for log10 BCF / log10 biotransformation half-life (days): fish

| SMILES | melting point [°C] | boiling point [°C] | also measured |
| --- | --- | --- | --- |
| O=C(O)c1ccc([N+](=O)[O-])cc1 | 242 |  | ready biodegradability: readily biodegradable |
| c1ccc2c(c1)cc1ccc3cccc4c5ccccc5c2c1c34 | 162 |  |  |
| CC(=O)N1CCOCC1 | 14.5 |  |  |
| CCCCCCC(C)CC (stereo not given) | -84.8 | 168 |  |
| O=C(S)c1ccccc1 | 24 |  |  |
| NC(N)=S | 182 |  | log10 Koc (L/kg): 0.85; log10 vapour pressure (mmHg): -2.55; log10 BCF: 0.3 |
| CCCC1CCNCC1 |  | 173 |  |
| CCN(Cc1ccc(Cl)nc1)/C(=C/[N+](=O)[O-])NC |  |  | log10 vapour pressure (mmHg): -11.1 |
| CCCC(C)C(C)(C)C (stereo not given) |  | 134 | log10 vapour pressure (mmHg): 1.06 |
| N#Cc1c2ccccc2cc2ccccc12 | 175 |  |  |
| Cc1cccc(N(C)C)c1 |  | 212 |  |
| CC1CNCC(C)O1 (stereo not given) | -88 | 147 |  |
| CCN(C=O)CC |  | 178 | log10 vapour pressure (mmHg): 0.0821 |
| CCC(C)Nc1c([N+](=O)[O-])cc(C(C)(C)C)cc1[N+](=O)[O-] (stereo not given) | 60 |  | log10 Koc (L/kg): 3.98; log10 vapour pressure (mmHg): -4.9 |
| Cc1ccc(C(C)C)cc1O | 1 | 238 |  |
| CCOCC1CO1 (stereo not given) |  | 128 |  |
| COP(=S)(OC)Oc1ccc([N+](=O)[O-])c(C)c1 | 3.4 |  | log10 Henry constant (atm·m³/mol): -6.03; log10 Koc (L/kg): 2.63; log10 vapour pressure (mmHg): -4.27; ready biodegradability: readily biodegradable; log10 BCF: 1.95; log10 biotransformation half-life (days): 0.03 |
| CCC1CCC(=O)CC1 |  | 193 |  |
| CC(C)COc1ccc2ccccc2c1 | 31 |  | ready biodegradability: not readily biodegradable; log10 BCF: 2.8; log10 biotransformation half-life (days): 0.23 |
| CCCC/C=C/CCCC | -73 | 171 |  |
| CC(CC(C)(C)O)OC(O)C(Cl)(Cl)Cl (stereo not given) | 103 |  |  |
| CCCCCCCCOc1ccc(C(=O)c2ccccc2)c(O)c1 | 48.5 |  | ready biodegradability: not readily biodegradable; log10 BCF: 1.9 |
| CCN(CC)CCOC(=O)C(c1ccccc1)c1ccccc1 | 114 |  |  |
| Ic1cc(I)c(I)cc1I | 254 |  |  |

| SMILES | melting point [°C] | boiling point [°C] | also measured |
| --- | --- | --- | --- |
| O=Cc1ccc([N+](=O)[O-])cc1[N+](=O)[O-] | 72 |  |  |
| CC(F)(F)C(F)(F)F |  | -17.4 | log10 vapour pressure (mmHg): 3.54 |
| Cc1cc(O)c(C)c(C)c1C | 85.3 | 266 |  |
| O=C1CCc2ccccc2O1 | 25 | 272 |  |
| Cc1ccc[nH]c1=O | 142 | 289 |  |
| O=[N+]([O-])c1ccccc1F | -6 |  |  |
| C1CCCCC1 | 6.6 | 80.7 | log10 Henry constant (atm·m³/mol): -0.824; log10 Koa: 2.74; log10 biodegradation half-life (days): 1.7; log10 vapour pressure (mmHg): 1.99; ready biodegradability: not readily biodegradable; log10 BCF: 1.92; log10 biotransformation half-life (days): -0.66 |
| CCc1cc(Cc2cc(CC)cc(C(C)(C)C)c2O)c(O)c(C(C)(C)C)c1 | 120 |  |  |
| Cc1onc(-c2ccccc2)c1C(=O)N[C@@H]1C(=O)N2[C@@H]1SC(C)(C)[C@@H]2C(=O)O | 188 |  |  |
| CCN(CC)C(=O)C(C)Oc1cccc2ccccc12 (stereo not given) | 75 |  | log10 Koc (L/kg): 2.76; log10 vapour pressure (mmHg): -6.76 |
| C[C@H](CCC(=O)O)[C@H]1CC[C@H]2[C@@H]3CC[C@@H]4C[C@H](O)CC[C@]4(C)[C@H]3C[C@H](O)[C@]12C | 177 |  |  |
| CC1=C(O)C(=O)CC1 | 106 |  |  |
| CCCCCCCCCCCCCCCCCCC#N |  |  | ready biodegradability: readily biodegradable |
| CCCN1CCCCC1 |  | 152 |  |
| O=C1C(O)=C(C2CCCCC2)C(=O)c2ccccc21 | 136 |  |  |
| c1ccc(CCCc2ccncc2)cc1 |  | 322 |  |
| Cc1ccc(CO)cc1 | 61.5 | 217 |  |
| CCCCC(C)C | -118 | 90 | log10 biodegradation half-life (days): 0.477; log10 vapour pressure (mmHg): 1.82 |
| COC(CC(OC)OC)OC |  | 183 |  |
| CCCCCCCCCCCC[N+](C)(C)[O-] | 132 |  | ready biodegradability: readily biodegradable |
| CC(C)(C#N)C(C)(C)C#N | 170 |  |  |
| CC(C)(C)NC[C@H](O)COc1nsnc1N1CCOCC1 | 202 |  |  |
| C(=C(c1ccccc1)c1ccccc1)c1ccccc1 | 72.5 |  |  |
| O=C1c2ccccc2C(=O)c2c(O)ccc(O)c21 | 200 |  | log10 vapour pressure (mmHg): -7.61 |

| SMILES | melting point [°C] | boiling point [°C] | also measured |
| --- | --- | --- | --- |
| Clc1cc(-c2cc(Cl)c(Cl)c(Cl)c2)cc(Cl)c1Cl |  |  | log10 BCF: 5.97 |
| [N-]=[N+]=NCC(=O)N[C@H](CO)[C@H](O)c1ccc([N+](=O)[O-])cc1 | 107 |  |  |
| CC[C@H]1C[C@@H]2C[C@H]3c4[nH]c5cc(OC)ccc5c4CC[N@@](C2)[C@@H]13 | 214 |  |  |
| CCN(CC)CC(=O)Nc1c(C)cc(C)cc1C | 44 |  |  |
| CCC(C)OC(=O)CC(C)=O (stereo not given) |  |  | ready biodegradability: readily biodegradable |
| CC(C)(Oc1ccc(Cl)cc1)C(=O)OCCCOC(=O)C(C)(C)Oc1ccc(Cl)cc1 | 52 |  |  |
| C1CCSSC1 | 32.5 |  |  |
| C#CC(O)c1ccccc1 (stereo not given) | 22 |  |  |
| CC(C)OC(=O)C(C)C |  | 121 | log10 vapour pressure (mmHg): 1.2 |
| O=C1CCC(=O)N1c1ccccc1 | 156 | 400 |  |
| N#C[S-].[Na+] | 287 |  |  |
| O=[N+]([O-])c1ccccc1SSc1ccccc1[N+](=O)[O-] | 196 |  |  |
| c1ccc2c(c1)Cc1cc3ccccc3cc1-2 | 212 |  | log10 vapour pressure (mmHg): -7.26; log10 biotransformation half-life (days): -0.39 |
| CCc1cccc(C)c1 | -95.5 | 161 | log10 biodegradation half-life (days): 0.477; log10 vapour pressure (mmHg): 0.483 |
| FC(F)(F)c1nc2c(Cl)c(Cl)ccc2[nH]1 | 214 |  |  |
| Cc1cc(O)c2c(c1)C(=O)c1cccc(O)c1C2=O | 196 |  |  |
| CN[C@@H](C)Cc1ccccc1.Cl | 172 |  |  |
| CCC(C)c1cc([N+](=O)[O-])cc([N+](=O)[O-])c1OC(=O)OC(C)C (stereo not given) | 61 |  |  |
| BrCc1ccccc1Br | 31 |  |  |
| Cc1ccc(S(=O)O)cc1 | 86.5 |  |  |
| FC(F)(F)Br | -172 | -57.8 | log10 Henry constant (atm·m³/mol): -0.302; log10 vapour pressure (mmHg): 4.09 |
| Cc1ccc2c(c1)CCCC2(C)C |  | 240 | log10 biotransformation half-life (days): 0.83 |
| CCCCCCCCCCCCCCCC(=O)O | 61.8 | 352 | log10 vapour pressure (mmHg): -6.42; ready biodegradability: readily biodegradable |
| Oc1ccccc1C(F)(F)F | 45.5 | 148 |  |

| SMILES | melting point [°C] | boiling point [°C] | also measured |
| --- | --- | --- | --- |
| CC1=C(/C=C/C(C)=C/C=C/C(C)=C/C=C/C=C(C)/C=C/C=C(C)/C=C/C2=C(C)C[C@H](O)CC2(C)C)C(C)(C)CCC1 | 160 |  |  |
| C=CCCCCCCCCCCCCCCCCCCCCC(=O)O |  |  | ready biodegradability: readily biodegradable |
| CN1CCN(C2=Nc3ccccc3Cc3ccccc32)CC1 | 137 |  |  |
| CC(CN1c2ccccc2Sc2ccccc21)N(C)C (stereo not given) | 60 |  |  |
| CCOC(=O)C1OC1(C)c1ccccc1 (stereo not given) |  | 274 |  |
| CC(C)CC(C)Nc1ccc(Nc2ccccc2)cc1 (stereo not given) |  |  | ready biodegradability: not readily biodegradable |
| Cc1ccc(O)cc1C |  |  | ready biodegradability: readily biodegradable |
| Cc1ncc(CO)c(CO)c1O.Cl | 207 |  |  |
| O=C(O)c1ccc(O)cc1 | 214 |  | log10 Koa: 8.08; log10 Koc (L/kg): 1.43; log10 vapour pressure (mmHg): -6.72; ready biodegradability: readily biodegradable |
| Clc1cc(Cl)c2c(c1)oc1c(Cl)cc(Cl)cc12 | 177 |  | log10 vapour pressure (mmHg): -7.57 |
| C[Si]1(C)O[Si](C)(C)O[Si](C)(C)O[Si](C)(C)O[Si](C)(C)O[Si](C)(C)O1 | -3 | 245 | log10 vapour pressure (mmHg): -1.65; log10 biotransformation half-life (days): 2.34 |
| Cc1ccccc1NCc1ccccc1 | 60 | 302 |  |
| Cc1ccc(O)cc1Cl | 55.5 | 228 | ready biodegradability: not readily biodegradable |
| Clc1c(Cl)c(Cl)c(-c2c(Cl)c(Cl)c(Cl)c(Cl)c2Cl)c(Cl)c1Cl |  |  | ready biodegradability: not readily biodegradable; log10 BCF: 4.24; log10 biotransformation half-life (days): 2.86 |
| Nc1ccc(S(=O)(=O)[O][Na])c2ccccc12 |  |  | log10 BCF: 0.78 |
| O=C1COc2ccccc21 | 102 |  |  |
| CCC(C)OC(=O)CCC(=O)OC(C)CC (stereo not given) |  | 256 |  |
| Nc1ccc(N=O)cc1 | 174 |  |  |
| c1ccc(NC2CCCCC2)cc1 | 16 | 279 |  |
| CN(CC(=O)N1CCOCC1)Cc1c(Cl)cccc1NC(=O)c1ccccc1 | 123 |  |  |
| Cc1ccc(O)c2ccccc12 | 85.8 |  |  |
| CCCCCCCCCO |  |  | ready biodegradability: readily biodegradable |
| CC(CCO)CCO |  |  | ready biodegradability: readily biodegradable |
| CC(=O)OCCc1ccccc1 | -31.1 | 233 | log10 Koc (L/kg): 1.89; log10 vapour pressure (mmHg): -1.5 |

| SMILES | melting point [°C] | boiling point [°C] | also measured |
| --- | --- | --- | --- |
| COc1ccc(Cl)cc1Cl | 28.5 | 232 |  |
| CC(C)(C)N | -72.7 | 45 | log10 vapour pressure (mmHg): 2.57; ready biodegradability: not readily biodegradable |
| Cc1cc(=O)[nH]c(=S)[nH]1 |  |  | log10 Koc (L/kg): 2.14 |
| O=C(O)CC(S)C(=O)O (stereo not given) | 149 |  |  |
| O=[N+]([O-])c1cc(S(=O)(=O)Nc2ccccc2)ccc1Nc1ccccc1 | 156 |  | ready biodegradability: not readily biodegradable; log10 BCF: 1.61; log10 biotransformation half-life (days): -0.66 |
| O=C(O)/C=C/c1ccccc1C(F)(F)F | 206 |  |  |
| CN(C)C(=O)SCCCCOc1ccccc1 | 40.5 |  | log10 vapour pressure (mmHg): -5.9 |
| CNc1ccccc1C(=O)OC | 19 | 255 |  |
| Cc1cc(OC(=O)N(C)C)n(C(C)C)n1 |  |  | log10 vapour pressure (mmHg): -3 |
| CC(C)(C)OC(C)(C)C |  | 107 | log10 vapour pressure (mmHg): 1.51 |
| Nc1cccc(-c2cccc(N)c2)c1 | 93.5 |  |  |
| c1ccc(-c2c3ccccc3c(-c3ccccc3)c3ccccc23)cc1 | 246 |  | log10 vapour pressure (mmHg): -9.84 |
| CCCCCCCCC(C(=O)O)C(=O)O | 116 |  |  |
| OCc1ccc(F)cc1 | 23 | 210 |  |
| Clc1cc(Cl)c2c(c1Cl)Oc1ccccc1O2 | 128 |  | log10 Henry constant (atm·m³/mol): -4.44; log10 Koa: 8.97; log10 vapour pressure (mmHg): -6.12; log10 BCF: 2.75; log10 biotransformation half-life (days): 0.43 |
| C[C@]12CC[C@H]3[C@@H](CCC4=C(O)C(=O)CC[C@@H]43)[C@@H]1CC[C@@H]2O | 189 |  |  |
| C=CCC1=C(C)C(OC(=O)C2C(C=C(C)C)C2(C)C)CC1=O (stereo not given) | -40 |  | log10 vapour pressure (mmHg): -5.92; ready biodegradability: not readily biodegradable |
| C=COC(=O)C=C |  | 91 |  |
| CC(C)(c1ccc(O)cc1)c1ccc(O)cc1 | 153 |  | ready biodegradability: not readily biodegradable; log10 BCF: 1.64; log10 biotransformation half-life (days): 0.27 |
| C=CC1CCCCC1 |  | 128 |  |
| O=S(=O)(c1ccc(Cl)cc1)c1ccc(Cl)cc1 | 148 |  | ready biodegradability: not readily biodegradable |
| CCCCC1C(=O)N(c2ccccc2)N(c2ccc(O)cc2)C1=O (stereo not given) | 96 |  |  |
| c1ccc(Oc2nc(Oc3ccccc3)nc(Oc3ccccc3)n2)cc1 | 234 |  |  |
| CCc1cc(C)cc(CC)c1 | -74.1 | 205 | log10 vapour pressure (mmHg): 0.0017 |
